In ChEMBL document CHEMBL1151534, “UK-73,093: A non-peptide neurotensin receptor antagonist” (Bioorg Med Chem Lett, 1992):
pIC50, pKi: −log10 of the molar value. The source made the active and inactive calls. No cut-off for these calls is given here.

Tests used:
N1E-115 [1] = assay: Evaluated for the cyclic [3H]GMP formation in murine N1E-115 neuroblastoma cells in absence of neurotensin at conc. of 32 uM; NS - No significant activity; assay type: functional, cell-based; conditions: Mus musculus
N1E-115 [2] = assay: Evaluated for its antagonistic activity against the NT-stimulated cyclic [3H]GMP formation in murine N1E-115 neuroblastoma cells; assay type: functional, cell-based, Mus musculus
[3] = biological target: Neurotensin receptor type 1 (Rattus norvegicus, UniProt P20789); assay: Inhibitory concentration required for the displacement of [3H]NT from neurotensin receptor in rat
[4] = biological target: Neurotensin receptor (Homo sapiens) (UniProt O95665+P30989); assay: Inhibitory concentration required for the displacement of [3H]-NT from neurotensin receptor on human frontal cortex at conc. of 100 uM; NA - No activity; assay type: tissue-based
[5] = biological target: Neurotensin receptor type 1 (Mus musculus, UniProt O88319); assay: Inhibitory concentration required for the displacement of [3H]NT from neurotensin receptor in mouse; value ranges from 4-6 uM
Rattus norvegicus [6] = assay: Compound was tested for the inhibition of NT-induced hyperlocomotion at a dose of 80 mg/kg (ip); SI - Significant inhibition; assay type: functional, organism-based; parameters: dose 80 mg/kg
Rattus norvegicus [7] = assay: Compound was tested for the inhibition of NT-induced hyperlocomotion at a dose of 120 mg/kg (ip); SI - Significant inhibition; assay type: functional, organism-based; parameters: dose 120 mg/kg
Rattus norvegicus [8] = assay: Compound was tested for the inhibition of NT-induced hyperlocomotion at a dose of 40 mg/kg (ip); NS - No significant inhibition; assay type: functional, organism-based; parameters: dose 40 mg/kg
[9] = Compound was evaluated for its ability to displace [3H]NT from the neurotensin receptor of bovine brain

Chain of Neurotensin receptor type 1 (Mus musculus, UniProt O88319) (O88319 whole entry): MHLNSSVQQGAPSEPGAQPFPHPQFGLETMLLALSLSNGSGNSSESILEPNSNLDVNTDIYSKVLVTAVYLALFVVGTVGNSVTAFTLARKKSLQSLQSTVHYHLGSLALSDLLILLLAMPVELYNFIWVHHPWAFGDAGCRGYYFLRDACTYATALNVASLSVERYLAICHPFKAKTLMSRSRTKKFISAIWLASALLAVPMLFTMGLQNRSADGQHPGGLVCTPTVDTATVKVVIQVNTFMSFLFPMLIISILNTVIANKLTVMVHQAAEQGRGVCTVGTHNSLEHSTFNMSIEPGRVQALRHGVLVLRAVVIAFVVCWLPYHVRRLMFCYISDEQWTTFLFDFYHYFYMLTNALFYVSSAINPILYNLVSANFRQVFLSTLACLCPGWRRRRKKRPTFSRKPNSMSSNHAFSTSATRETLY
Chain of Neurotensin receptor type 1 (Rattus norvegicus, UniProt P20789) (P20789 whole entry): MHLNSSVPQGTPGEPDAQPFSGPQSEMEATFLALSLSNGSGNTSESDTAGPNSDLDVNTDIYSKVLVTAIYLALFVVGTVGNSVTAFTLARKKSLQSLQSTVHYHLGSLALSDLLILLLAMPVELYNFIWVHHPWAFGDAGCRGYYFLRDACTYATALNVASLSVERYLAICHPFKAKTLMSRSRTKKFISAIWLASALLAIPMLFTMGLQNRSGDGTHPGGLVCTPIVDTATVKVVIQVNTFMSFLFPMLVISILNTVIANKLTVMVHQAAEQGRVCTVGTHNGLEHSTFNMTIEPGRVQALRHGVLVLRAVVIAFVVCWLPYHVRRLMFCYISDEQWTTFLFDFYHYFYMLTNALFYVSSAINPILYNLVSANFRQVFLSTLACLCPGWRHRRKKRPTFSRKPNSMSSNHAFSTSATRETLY
Chain of Neurotensin receptor (Homo sapiens) (O95665 whole entry, looked up): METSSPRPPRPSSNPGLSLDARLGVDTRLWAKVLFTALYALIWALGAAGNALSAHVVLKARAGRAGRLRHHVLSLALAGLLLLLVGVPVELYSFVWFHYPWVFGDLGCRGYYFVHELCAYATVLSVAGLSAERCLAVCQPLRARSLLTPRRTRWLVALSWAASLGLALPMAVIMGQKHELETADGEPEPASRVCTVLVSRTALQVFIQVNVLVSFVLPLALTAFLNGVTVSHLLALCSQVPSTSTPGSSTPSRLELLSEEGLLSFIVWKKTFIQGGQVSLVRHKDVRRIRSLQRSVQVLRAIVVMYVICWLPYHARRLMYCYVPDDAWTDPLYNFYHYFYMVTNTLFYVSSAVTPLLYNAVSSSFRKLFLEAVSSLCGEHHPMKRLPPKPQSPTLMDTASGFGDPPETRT
Chain of Neurotensin receptor (Homo sapiens) (P30989 whole entry, looked up): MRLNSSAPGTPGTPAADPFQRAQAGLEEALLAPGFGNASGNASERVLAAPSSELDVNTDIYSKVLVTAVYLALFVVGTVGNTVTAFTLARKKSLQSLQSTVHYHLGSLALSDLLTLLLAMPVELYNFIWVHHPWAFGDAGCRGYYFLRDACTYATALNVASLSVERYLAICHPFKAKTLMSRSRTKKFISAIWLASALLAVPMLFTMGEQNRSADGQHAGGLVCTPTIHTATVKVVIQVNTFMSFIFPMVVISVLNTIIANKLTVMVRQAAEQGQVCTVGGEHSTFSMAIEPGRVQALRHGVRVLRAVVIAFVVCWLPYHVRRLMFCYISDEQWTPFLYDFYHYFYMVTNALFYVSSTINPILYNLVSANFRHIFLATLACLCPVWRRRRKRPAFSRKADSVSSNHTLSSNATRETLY

With `Cc1ccc(S(=O)(=O)NCCNC2(c3ccccc3)OC(=O)c3ccccc32)cc1` (centres undefined) the Activity (N1E-115 [1]) was “inactive”, the pKi (N1E-115 [2]) was 5.36 and the pIC50 [3] was 4.31. The inhibition [4] was “inactive”, the pIC50 [5] was 5.22 and the inhibition (Rattus norvegicus [6]) was “Active”. For the same compound, the inhibition (Rattus norvegicus [7]) was “Active”, the inhibition (Rattus norvegicus [8]) was “inactive” and the IC50 [9] was 5.5 µM.
